Assay results as given in PMC8151276, “An Integrated Approach toward NanoBRET Tracers for Analysis of GPCR Ligand Engagement” (Molecules, 2021).
Blank lines part the entries; values can stand above or below the molecule they belong to.

Assays:
Type in all cases: binding
GABBR1 = biological target: T1, GABBR1 (Homo sapiens, UniProt Q9UBS5); assay: NanoBRET screen HiBiT-GABBR1 in HEK293
T1 construct: purchased Promega (in-house HiBiT-GPCR construct library, NanoBRET)
Description: (§1) Each tracer candidate was screened across the entire library of HiBiT-GPCR constructs using NanoBRET as the detection modality. As depicted in Figure 4A, the specificity of interactions was evaluated through decrease in BRET due to competitive displacement of a bound tracer by excess parental compound. Each tracer was analyzed for binding to each HiBiT-GPCR fusion in the absence and in the presence of competing parental compound. Briefly, HEK293 cells were transfected with HiBiT-GPCR constructs diluted into promoterless DNA to reduce expression and maximize translocation to the cell surface. Each tracer candidate was then screened at concentrations of 1 μM and 0.1 μM across cells expressing these fusions. Cells were treated for 1.5 h with tracer either alone or in the presence of 20 μM competing parental compound (i.e., control). BRET was measured upon addition of purified LgBiT and subsequent complementation with HiBiT genetically fused to a GPCR. The specificity of interactions was assessed through a decrease in BRET signal due to competitive displacement of the bound tracer. To further gauge the robustness of these interactions, the fold response over the control (i.e., BRETtracer/BRETcontrol) was calculated. We chose a 1.5-fold response, which translates to ≥7-fold signal over noise as the minimal threshold required to score an interaction as positive. […]. Below we highlight the screening results obtained for our exemplary fluorescent tracers based on Clozapine, Amitriptyline and AZD1283.
(§2) HiBiT-GPCR DNA constructs were diluted in 10 mM Tris pH 8 to a final concentration of 0.01 μg/μL, arrayed in 96-well plates and stored at −20 °C. For transfection, HEK293 cells were suspended in Opti-MEM (without phenol red) supplemented with 2% fetal bovine serum (Seradigm) and 100 units/mL penicillin–streptomycin (Gibco) at a final concentration of 220,000 cells/mL and dispensed into white 96-well plates at 90 μL/well. Subsequent transfections and screens were carried using an Agilent Bravo Automated Liquid Handling Platform. First, the 96-well HiBiT DNA arrays were diluted 25-fold in Opti-MEM (without serum or phenol red) to a final concentration of 0.0004 μg/μL and 20 μL of the diluted DNAs were transferred into new 96-well plates. Next, promoterless carrier DNA (1 μg/μL) was diluted 25-fold (0.04 μg/μL) and then dispensed into the diluted arrays at 20 μL/well. Following brief mixing, Viafect transfection reagent (Promega) diluted 16-fold into Opti-MEM was dispensed into the plates at 40 μL/well. After mixing by pipetting, plates were incubated for 10 min on the pipetting station deck. The DNA-transfection reagent complexes were then added to plates containing cells. To facilitate the screen, 10 μL of DNA-transfection reagent complexes were added in duplicates to the top 4 and bottom 4 rows, resulting in two identical 48-well arrays per plate. Plates with transfected cells were incubated for 18–20 h at 37 °C/5% CO2. A screen of each tracer across the entire library using two different concentrations requires duplicate plates of transfected cells. Depending on the number of tracers being screened, transfections can be scaled up using the same ratios. The next day, for each tracer, four 20× screening solutions in tracer dilution buffer (Promega) were prepared: two duplicates at final concentration of 20 μM and two duplicates at a final concentration of 2 μM. A competing unmodified compound was added to one of each duplicate at a final concentration of 400 μM. The four resulting solutions were diluted 4-fold in Opti-MEM without serum or phenol red to generate 5× solutions (5 µM and 0.5 µM tracer +/− 100 μM competing compound). To screen the library, a BioTek MultiFlo FX liquid dispenser was used to dispense 22.5 µL of tracer solution to the top 4 rows and 22.5 µL tracer + competing compound solution to the 4 bottom rows. Plates were briefly mixed on an orbital shaker and incubated for 1.5 h at room temperature. […]

HTR5A = biological target: T2, HTR5A (Homo sapiens, UniProt P47898); assay: NanoBRET screen HiBiT-HTR5A in HEK293
T2 construct: purchased Promega (in-house HiBiT-GPCR construct library, NanoBRET)
T2 sequence (P47898 whole entry): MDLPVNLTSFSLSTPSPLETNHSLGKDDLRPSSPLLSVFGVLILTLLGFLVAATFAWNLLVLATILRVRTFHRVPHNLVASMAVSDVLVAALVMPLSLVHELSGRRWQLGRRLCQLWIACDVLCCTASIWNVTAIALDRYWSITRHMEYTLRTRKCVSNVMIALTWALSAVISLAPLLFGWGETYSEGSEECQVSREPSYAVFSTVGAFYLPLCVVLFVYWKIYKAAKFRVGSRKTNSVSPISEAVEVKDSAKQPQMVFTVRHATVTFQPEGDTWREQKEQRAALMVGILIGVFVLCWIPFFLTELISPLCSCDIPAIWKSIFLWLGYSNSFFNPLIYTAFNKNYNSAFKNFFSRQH
Description: as §1, §2

MCHR1 = biological target: T3, MCHR1 (Homo sapiens, UniProt Q99705); assay: NanoBRET screen HiBiT-MCHR1 in HEK293
T3 construct: purchased Promega (in-house HiBiT-GPCR construct library, NanoBRET)
T3 sequence (Q99705 whole entry): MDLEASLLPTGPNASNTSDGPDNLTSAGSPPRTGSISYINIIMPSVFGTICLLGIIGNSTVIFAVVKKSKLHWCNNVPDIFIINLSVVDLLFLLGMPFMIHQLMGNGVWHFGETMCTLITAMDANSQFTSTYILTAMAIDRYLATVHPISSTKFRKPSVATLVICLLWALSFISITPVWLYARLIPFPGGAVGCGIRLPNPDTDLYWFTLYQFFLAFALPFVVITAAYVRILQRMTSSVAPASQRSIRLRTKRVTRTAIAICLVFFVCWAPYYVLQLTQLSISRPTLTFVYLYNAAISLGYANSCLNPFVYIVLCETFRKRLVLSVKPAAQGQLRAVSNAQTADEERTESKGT
Description: as §1, §2

FZD2 = biological target: T4, FZD2 (Homo sapiens, UniProt Q14332); assay: NanoBRET screen HiBiT-FZD2 in HEK293
T4 construct: purchased Promega (in-house HiBiT-GPCR construct library, NanoBRET)
T4 sequence (Q14332 24-565): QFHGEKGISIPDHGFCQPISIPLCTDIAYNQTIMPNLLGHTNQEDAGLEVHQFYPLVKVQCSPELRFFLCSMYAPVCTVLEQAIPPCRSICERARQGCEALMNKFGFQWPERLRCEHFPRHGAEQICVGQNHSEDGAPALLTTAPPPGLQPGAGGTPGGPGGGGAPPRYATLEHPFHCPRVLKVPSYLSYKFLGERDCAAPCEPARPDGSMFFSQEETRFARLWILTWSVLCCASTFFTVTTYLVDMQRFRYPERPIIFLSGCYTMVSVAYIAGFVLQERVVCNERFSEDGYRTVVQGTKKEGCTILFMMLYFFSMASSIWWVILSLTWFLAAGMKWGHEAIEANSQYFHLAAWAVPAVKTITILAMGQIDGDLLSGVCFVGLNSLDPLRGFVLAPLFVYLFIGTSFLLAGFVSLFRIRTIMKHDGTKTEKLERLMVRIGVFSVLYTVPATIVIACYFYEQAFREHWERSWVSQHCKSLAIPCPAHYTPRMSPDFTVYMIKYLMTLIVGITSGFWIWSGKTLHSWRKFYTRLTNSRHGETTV
Description: as §1, §2

GRM1 = biological target: T5, GRM1 (Homo sapiens, UniProt Q13255); assay: NanoBRET screen HiBiT-GRM1 in HEK293
T5 construct: purchased Promega (in-house HiBiT-GPCR construct library, NanoBRET)
T5 sequence (Q13255 19-1194): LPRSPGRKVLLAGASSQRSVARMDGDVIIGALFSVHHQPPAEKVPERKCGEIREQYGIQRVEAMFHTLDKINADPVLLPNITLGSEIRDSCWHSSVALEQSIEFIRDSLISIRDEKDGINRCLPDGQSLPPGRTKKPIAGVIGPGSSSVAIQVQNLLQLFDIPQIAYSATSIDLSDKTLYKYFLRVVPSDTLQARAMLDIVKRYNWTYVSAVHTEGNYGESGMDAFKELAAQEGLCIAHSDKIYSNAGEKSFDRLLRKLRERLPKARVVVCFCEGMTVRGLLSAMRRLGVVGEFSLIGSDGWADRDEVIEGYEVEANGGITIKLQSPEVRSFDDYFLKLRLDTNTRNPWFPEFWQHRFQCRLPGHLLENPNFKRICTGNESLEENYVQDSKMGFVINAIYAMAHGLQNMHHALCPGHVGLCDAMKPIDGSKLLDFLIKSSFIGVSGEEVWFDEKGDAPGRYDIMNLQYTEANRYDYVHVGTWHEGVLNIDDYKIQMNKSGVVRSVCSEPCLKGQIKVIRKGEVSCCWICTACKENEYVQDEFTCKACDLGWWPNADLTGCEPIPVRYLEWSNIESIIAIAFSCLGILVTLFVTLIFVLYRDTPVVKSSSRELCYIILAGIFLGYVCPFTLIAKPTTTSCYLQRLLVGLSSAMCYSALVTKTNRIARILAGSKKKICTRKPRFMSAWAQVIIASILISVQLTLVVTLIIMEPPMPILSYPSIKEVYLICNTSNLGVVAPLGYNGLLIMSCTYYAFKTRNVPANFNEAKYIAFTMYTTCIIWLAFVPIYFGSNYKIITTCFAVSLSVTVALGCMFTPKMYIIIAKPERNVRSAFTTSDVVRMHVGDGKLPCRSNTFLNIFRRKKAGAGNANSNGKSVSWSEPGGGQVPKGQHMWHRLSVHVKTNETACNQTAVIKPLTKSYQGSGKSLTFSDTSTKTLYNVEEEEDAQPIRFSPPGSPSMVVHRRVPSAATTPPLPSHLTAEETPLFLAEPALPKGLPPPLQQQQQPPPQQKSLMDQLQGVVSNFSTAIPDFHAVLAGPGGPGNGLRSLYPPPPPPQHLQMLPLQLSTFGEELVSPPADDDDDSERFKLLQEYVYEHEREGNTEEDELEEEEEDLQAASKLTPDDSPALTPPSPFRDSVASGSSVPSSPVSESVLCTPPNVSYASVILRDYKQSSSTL
Description: as §1, §2

LGR6 = biological target: T6, LGR6 (Homo sapiens, UniProt Q9HBX8); assay: NanoBRET screen HiBiT-LGR6 in HEK293
T6 construct: purchased Promega (in-house HiBiT-GPCR construct library, NanoBRET)
T6 sequence (Q9HBX8 25-967): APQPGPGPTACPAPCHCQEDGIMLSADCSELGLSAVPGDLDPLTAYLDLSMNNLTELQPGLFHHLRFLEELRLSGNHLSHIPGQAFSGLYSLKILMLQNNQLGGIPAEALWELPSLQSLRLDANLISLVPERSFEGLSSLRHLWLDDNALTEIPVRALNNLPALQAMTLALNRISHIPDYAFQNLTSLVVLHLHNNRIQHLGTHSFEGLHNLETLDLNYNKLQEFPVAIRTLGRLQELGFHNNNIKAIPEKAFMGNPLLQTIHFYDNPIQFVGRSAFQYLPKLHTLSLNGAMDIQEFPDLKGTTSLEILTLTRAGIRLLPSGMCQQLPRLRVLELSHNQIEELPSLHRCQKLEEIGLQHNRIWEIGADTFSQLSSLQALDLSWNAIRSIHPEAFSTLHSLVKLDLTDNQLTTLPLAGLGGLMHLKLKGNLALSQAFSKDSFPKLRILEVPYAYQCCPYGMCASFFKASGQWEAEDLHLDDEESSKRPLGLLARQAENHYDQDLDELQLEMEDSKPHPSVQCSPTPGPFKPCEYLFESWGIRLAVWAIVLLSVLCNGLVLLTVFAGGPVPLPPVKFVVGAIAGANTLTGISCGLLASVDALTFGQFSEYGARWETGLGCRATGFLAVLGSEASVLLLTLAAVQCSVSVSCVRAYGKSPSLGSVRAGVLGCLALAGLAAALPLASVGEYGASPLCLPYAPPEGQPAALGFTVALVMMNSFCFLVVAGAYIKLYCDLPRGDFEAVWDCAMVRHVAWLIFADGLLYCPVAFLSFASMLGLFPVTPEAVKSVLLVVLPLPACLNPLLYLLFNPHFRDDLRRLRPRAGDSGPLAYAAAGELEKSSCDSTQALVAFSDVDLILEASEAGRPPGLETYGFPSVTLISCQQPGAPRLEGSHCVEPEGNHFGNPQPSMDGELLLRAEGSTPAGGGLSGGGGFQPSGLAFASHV
Description: as §1, §2

P2RY10 = biological target: T7, P2RY10 (Homo sapiens, UniProt O00398); assay: NanoBRET screen HiBiT-P2RY10 in HEK293
T7 construct: purchased Promega (in-house HiBiT-GPCR construct library, NanoBRET)
T7 sequence (O00398 whole entry, one chain of several): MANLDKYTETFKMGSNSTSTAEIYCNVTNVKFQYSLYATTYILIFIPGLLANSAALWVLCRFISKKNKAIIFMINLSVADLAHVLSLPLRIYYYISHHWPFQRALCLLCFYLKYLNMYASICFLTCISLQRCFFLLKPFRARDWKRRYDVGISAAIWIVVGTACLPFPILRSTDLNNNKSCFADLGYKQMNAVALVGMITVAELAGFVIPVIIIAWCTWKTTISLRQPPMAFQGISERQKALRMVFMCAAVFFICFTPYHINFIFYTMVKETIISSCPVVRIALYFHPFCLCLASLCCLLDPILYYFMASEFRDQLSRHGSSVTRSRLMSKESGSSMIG
Description: as §1, §2

P2RY12 = biological target: T8, P2RY12 (Homo sapiens, UniProt Q9H244); assay: NanoBRET screen HiBiT-P2RY12 in HEK293
T8 construct: purchased Promega (in-house HiBiT-GPCR construct library, NanoBRET)
T8 sequence (Q9H244 whole entry, one chain of several): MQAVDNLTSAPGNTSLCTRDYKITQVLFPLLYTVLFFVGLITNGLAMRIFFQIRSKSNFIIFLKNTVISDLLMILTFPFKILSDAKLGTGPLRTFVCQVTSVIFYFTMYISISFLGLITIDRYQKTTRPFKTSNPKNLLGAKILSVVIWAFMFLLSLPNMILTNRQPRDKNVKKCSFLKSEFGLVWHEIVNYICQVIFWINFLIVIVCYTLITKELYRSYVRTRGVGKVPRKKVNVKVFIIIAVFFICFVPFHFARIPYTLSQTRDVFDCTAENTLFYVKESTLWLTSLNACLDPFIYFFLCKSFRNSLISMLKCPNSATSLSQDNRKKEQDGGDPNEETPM
Description: as §1, §2

[1] = tracer at 0.1μM, listed as amitriptyline-b-2-NB590
[2] = tracer at 1μM, listed as amitriptyline-b-2-NB590

T1 sequence (Q9UBS5 15-961 limits assumed): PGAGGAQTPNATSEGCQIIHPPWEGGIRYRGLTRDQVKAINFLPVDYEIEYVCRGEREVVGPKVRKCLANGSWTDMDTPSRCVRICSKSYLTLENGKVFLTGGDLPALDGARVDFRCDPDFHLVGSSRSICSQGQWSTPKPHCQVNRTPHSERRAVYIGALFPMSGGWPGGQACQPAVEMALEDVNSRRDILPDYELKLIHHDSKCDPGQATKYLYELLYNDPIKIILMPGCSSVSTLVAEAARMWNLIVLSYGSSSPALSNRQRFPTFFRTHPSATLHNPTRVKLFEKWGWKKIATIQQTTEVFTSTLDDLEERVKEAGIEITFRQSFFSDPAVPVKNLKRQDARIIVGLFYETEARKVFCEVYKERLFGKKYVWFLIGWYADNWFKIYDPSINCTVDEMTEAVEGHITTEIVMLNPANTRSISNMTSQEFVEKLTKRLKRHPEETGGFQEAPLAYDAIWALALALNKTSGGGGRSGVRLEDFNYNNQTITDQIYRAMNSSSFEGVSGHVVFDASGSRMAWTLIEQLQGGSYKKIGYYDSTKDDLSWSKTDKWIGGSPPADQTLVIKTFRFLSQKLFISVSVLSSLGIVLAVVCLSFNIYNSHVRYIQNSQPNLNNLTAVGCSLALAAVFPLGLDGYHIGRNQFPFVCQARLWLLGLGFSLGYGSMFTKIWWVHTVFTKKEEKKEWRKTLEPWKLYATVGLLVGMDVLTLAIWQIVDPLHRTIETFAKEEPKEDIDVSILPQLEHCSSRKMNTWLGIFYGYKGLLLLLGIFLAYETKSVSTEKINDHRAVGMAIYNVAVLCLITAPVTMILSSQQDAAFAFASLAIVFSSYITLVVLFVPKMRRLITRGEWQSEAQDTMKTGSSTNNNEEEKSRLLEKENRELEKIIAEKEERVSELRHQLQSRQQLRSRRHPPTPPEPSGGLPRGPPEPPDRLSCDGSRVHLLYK

SMILES: CN(C)CCC=C1c2ccccc2CCc2ccc(C(=O)NCCNC(=O)CCOCCOCCOCCOCCNC(=O)CCc3ccc4n3[B-](F)(F)[N+]3=C(c5ccc[nH]5)C=CC3=C4)cc21 [Amitriptyline-b-2-NB590]
- NanoBRET Fold Response (GABBR1; [1]): 1.11
- NanoBRET Fold Response (GABBR1; [2]): 0.85
- NanoBRET Fold Response (HTR5A; [1]): 1.22
- NanoBRET Fold Response (HTR5A; [2]): 1.26
- NanoBRET Fold Response (MCHR1; [1]): 0.79
- NanoBRET Fold Response (MCHR1; [2]): 1.01
- NanoBRET Fold Response (FZD2; [1]): 1.03
- NanoBRET Fold Response (FZD2; [2]): 0.94
- NanoBRET Fold Response (GRM1; GRM1, tracer 0.1μM): 0.77
- NanoBRET Fold Response (GRM1; GRM1, tracer 1μM): 0.97
- NanoBRET Fold Response (LGR6; [1]): 0.92
- NanoBRET Fold Response (LGR6; [2]): 1.14
- NanoBRET Fold Response (P2RY10; [1]): 1.14
- NanoBRET Fold Response (P2RY10; [2]): 1.38
- NanoBRET Fold Response (P2RY12; [1]): 0.96

SMILES: CN(CCC=C1c2ccccc2CCc2ccccc21)C(=O)CCOCCOCCOCCOCCNC(=O)CCc1ccc2n1[B-](F)(F)[N+]1=C(c3ccc[nH]3)C=CC1=C2 [Amitriptyline-e-2-NB590]
- NanoBRET Fold Response (GABBR1; tracer at 1μM): 1.09
- NanoBRET Fold Response (HTR5A; tracer at 1μM): 1.05
- NanoBRET Fold Response (FZD2; tracer at 1μM): 1.03
- NanoBRET Fold Response (LGR6; tracer at 1μM): 1.16
- NanoBRET Fold Response (P2RY10; tracer at 1μM): 0.99
- NanoBRET Fold Response (P2RY12; tracer at 1μM): 1.05

- NanoBRET Fold Response (GABBR1; 0.1μM tracer): 1.44
- NanoBRET Fold Response (GABBR1; 1μM tracer): 1.44
- NanoBRET Fold Response (HTR5A; 0.1μM tracer): 0.89
- NanoBRET Fold Response (HTR5A; 1μM tracer): 0.89
- NanoBRET Fold Response (MCHR1; 0.1μM tracer): 0.96
- NanoBRET Fold Response (MCHR1; 1μM tracer): 0.84
- NanoBRET Fold Response (FZD2; 0.1μM tracer): 0.95
- NanoBRET Fold Response (FZD2; 1μM tracer): 0.95
- NanoBRET Fold Response (GRM1; 0.1μM tracer): 1.27
- NanoBRET Fold Response (GRM1; 1μM tracer): 0.47
- NanoBRET Fold Response (LGR6; 0.1μM tracer): 1.03
- NanoBRET Fold Response (LGR6; 1μM tracer): 0.55
- NanoBRET Fold Response (P2RY10; 0.1μM tracer): 0.88
- NanoBRET Fold Response (P2RY10; 1μM tracer): 0.88
- NanoBRET Fold Response (P2RY12; 0.1μM tracer): 1.02
- NanoBRET Fold Response (P2RY12; 1μM tracer): 1.02
SMILES: COc1ccc2c(n1)c(CCNC(C)=O)cn2CCNC(=O)CCc1ccc2n1[B-](F)(F)[N+]1=C(c3ccc[nH]3)C=CC1=C2 [Azamelatonin-1-NB590]

SMILES: COc1ccccc1N1CCN(CCCCN2C(=O)c3ccc(CNC(=O)CCOCCOCCOCCOCCNC(=O)CCc4ccc5n4[B-](F)(F)[N+]4=C(c6ccc[nH]6)C=CC4=C5)cc3C2=O)CC1 [NAN-190-2-NB590]
- NanoBRET Fold Response (GABBR1; GABBR1, tracer 0.1μM): 0.88
- NanoBRET Fold Response (GABBR1; GABBR1, tracer 1μM): 0.93
- NanoBRET Fold Response (HTR5A; HTR5A, tracer 0.1μM): 0.96
- NanoBRET Fold Response (HTR5A; HTR5A, tracer 1μM): 1.13
- NanoBRET Fold Response (MCHR1; MCHR1, tracer 1μM): 0.93
- NanoBRET Fold Response (FZD2; FZD2, tracer 0.1μM): 0.97
- NanoBRET Fold Response (FZD2; FZD2, tracer 1μM): 1.02
- NanoBRET Fold Response (GRM1; GRM1, tracer 0.1μM): 0.35
- NanoBRET Fold Response (GRM1; GRM1, tracer 1μM): 0.92
- NanoBRET Fold Response (P2RY10; P2RY10, tracer 1μM): 0.95
